Laboratory results from paper PMC2873993, “Comparative Therapeutic Effects of Velaglucerase Alfa and Imiglucerase in a Gaucher Disease Mouse Model” (PLoS ONE, 2010).
Changes are numbered by the printed parent chain.

Legend:
9 V/null mouse = test system: 9 V/null mouse; set-up: method as in PMID 17509920; details: cited from earlier work
Vela = biological target: T1, Vela (Homo sapiens, UniProt P04062); assay: Inhibition of Vela by active site-directed GCase inhibitors (4MU-Glc substrate); format: biochemical; details: 8 pmol enzyme protein; SE ≤20%
T1 construct: purchased HGT/Shire, Cambridge, MA Lot#FEC06-002
T1 sequence (P04062 40-536): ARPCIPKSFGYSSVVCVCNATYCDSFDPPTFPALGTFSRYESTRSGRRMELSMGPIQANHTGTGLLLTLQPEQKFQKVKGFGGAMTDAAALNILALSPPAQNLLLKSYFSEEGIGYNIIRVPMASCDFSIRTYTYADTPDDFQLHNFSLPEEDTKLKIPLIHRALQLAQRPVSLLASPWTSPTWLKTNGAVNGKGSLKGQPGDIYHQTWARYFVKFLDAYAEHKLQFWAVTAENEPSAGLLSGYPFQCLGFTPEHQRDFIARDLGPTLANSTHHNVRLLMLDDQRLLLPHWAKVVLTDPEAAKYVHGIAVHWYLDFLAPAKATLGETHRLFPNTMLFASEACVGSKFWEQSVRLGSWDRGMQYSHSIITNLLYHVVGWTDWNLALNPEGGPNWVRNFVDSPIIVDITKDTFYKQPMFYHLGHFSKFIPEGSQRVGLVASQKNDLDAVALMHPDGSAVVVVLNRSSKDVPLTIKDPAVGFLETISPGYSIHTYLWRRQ

Imig = biological target: T2, Imig (Homo sapiens, UniProt P04062, R534H); assay: Inhibition of Imig by active site-directed GCase inhibitors (4MU-Glc substrate); format: biochemical; details: 8 pmol enzyme protein; SE ≤20%
T2 construct: purchased Genzyme, Cambridge, MA Lot#A7021H04; host or cells: CHO cells
T2 sequence (P04062 40-536 R534H): T1 sequence (P04062 40-536) with R495H

patients = details: Gaucher disease patients; cited from earlier work

CCCCCCCC(=O)N[C@H](CN1CCCC1)[C@H](O)c1ccc2c(c1)OCCO2 [Genz 112638]
effect on alveolar Gaucher cells (9 V/null mouse): clearance of the alveolar Gaucher cells

O[C@H]1[C@H](O)[C@@H](O)[C@@H]2O[C@@H]2[C@@H]1O (racemic) [Conduritol B epoxide]
IC50 (Vela): 99.8 µM
IC50 (Imig): 146 µM

B1: alglucerase (protein, UniProt P04062 40-536, looked up)
Lysosomal acid …: T1 sequence (P04062 40-536)
modifications: mannosyl-terminated glycans
patients who developed an IgG antibody response (patients): 13–15%
